# Measured values as given in patent US20090054412A1, “Treatment of Sleep Disorders” (priority 2007, published 2009).
# Assays:
# [1] = molecular target: T1, rat GABAA receptors α2β2γ2 (Rattus norvegicus, UniProt P18508+P23576); test: Stimulation of GABA (EC3-5)-elicited currents in Xenopus oocytes, two-electrode voltage clamp, α2β2γ2; type: cell-based
# T1 construct: expressed in transfected cells; host or cells: Xenopus laevis oocytes, cRNA microinjected
# Description: (§1) 7-Chloro-3-(5-dimethylaminomethyl-[1,2,4]oxadiazol-3-yl)-5methyl-4,5-dihydro-imidazol[1,5,-a][1,4]benzodiazepine-6-one was used to test the effects of the compound of formula (II): […]
# (§2) Similar procedures were chosen as for the investigation of other GABAA receptor subunit specific substances (e.g., Baur et al., 2005; Mol. Pharmacol. 68, 787-792).
# (§3) Lobes of the ovary containing the follicles were obtained by surgical procedures from female Xenopus laevis. Follicles were singled out using a platinum loop. Fifty nL of cRNA solution at a ratio of αx:β2:γ2 of 1:1:5 (3.3-10 nM αx (x=1,2,3,5); 3.3-10 nM β2; 16.7-50 nM γ2) (Boileau et al., 2002; Neuropharmacology 43, 695-700) were microinjected into Xenopus follicles. Several hours after microinjection the follicles were freed of follicular layers and adhering connective tissue by a collagenase/hypertonic shock procedure (Sigel, 1987; J. Physiol.(Land) 386, 73-90). Oocytes were kept at constant 18° C. until measurement (1-4 days) in a modified Barth solution (88 mM NaCl, 1 mM KCl, 2.4 mM NaHCO3, 10 mM Hepes-NaOH (pH 7.5), 0.82 mM MgSO4×7H2O, 0.34 mM Ca(NO3)2×4H2O, 0.41 mM CaCl2×2H2O, 100 U Penicillin/mL, 100 μg Streptomycin/mL, sterile filtered).
# (§4) Currents were measured using a home-built amplifier in combination with a xy-recorder or were digitized using a MacLab/200 (AD Instruments) and stored on a computer. Xenopus oocytes were voltage clamped using the two-electrode voltage clamp technique (electrode resistance about 0.8 MΩ) at −80 mV. The medium contained 90 mM NaCl, 1 mM KCl, 1 mM MgCl2, 1 mM CaCl2, 10 mM Na-Hepes (pH 7.4) and 0.5% DMSO.
# (§5) GABA was applied for 20-50 seconds without or in combination with other drugs and a washout period of 4 minutes was allowed to ensure full recovery from desensitization, which was experimentally determined. The perfusion solution (6 mL/min) was applied through a glass capillary with an inner diameter of 1.35 mm, the mouth of which was placed about 0.4 mm from the surface of the oocyte. The rate of solution change under our conditions has been estimated 70% within less than 0.5 s (Sigel et al., 1990; Neuron 5, 703-711). The entire perfusion system and the assay chamber were cleaned between drug applications by washing with DMSO.
# (§6) Data is given as mean±SD, except in the figures where data is shown for clarity as mean±SEM. Current stimulation was calculated as follows: stimulation (%)=((I(GABA+modulator)−I(GABA))/I(GABA))×100%, where I is the current amplitude. Where indicated, the stimulation was standardized to the stimulation by 1 μM diazepam (100%). To obtain FIGS. 1-4, values for current stimulation obtained at a given concentration of modulator at a given subunit combination were averaged. The data points were fitted with the equation stimulation=efficacy/(1+(potency/concentration of modulator)). The values given in the Tables (Summary) are obtained by fitting individual curves and subsequently averaging efficacy and potency.
# (§7) Concentration response curves were also performed with oocytes expressing α2β2γ2, α3β2γ2, or α5β2γ2, after establishing the optimal concentration range as indicated above. […] Averaged data of the individual curves summarizing the effects of the compound of formula (II) are shown below for unstandardized and standardized stimulation.
# (§8) Concentration response curves were also performed with oocytes expressing α2β2γ2, α3β2γ2, or α5β2γ2.
# (§9) Current stimulation by diazepam was determined in each batch of oocytes as follows. GABA (EC3-5) was applied until a stable response was obtained. Subsequently, GABA was applied in combination with 1 μM diazepam.
# [2] = molecular target: T2, rat GABAA receptors α3β2γ2 (Rattus norvegicus, UniProt P18508+P20236); test: Stimulation of GABA (EC3-5)-elicited currents in Xenopus oocytes, two-electrode voltage clamp, α3β2γ2; type: cell-based
# T2 construct: expressed in transfected cells; host or cells: Xenopus laevis oocytes, cRNA microinjected
# T2 sequence (P20236 29-493): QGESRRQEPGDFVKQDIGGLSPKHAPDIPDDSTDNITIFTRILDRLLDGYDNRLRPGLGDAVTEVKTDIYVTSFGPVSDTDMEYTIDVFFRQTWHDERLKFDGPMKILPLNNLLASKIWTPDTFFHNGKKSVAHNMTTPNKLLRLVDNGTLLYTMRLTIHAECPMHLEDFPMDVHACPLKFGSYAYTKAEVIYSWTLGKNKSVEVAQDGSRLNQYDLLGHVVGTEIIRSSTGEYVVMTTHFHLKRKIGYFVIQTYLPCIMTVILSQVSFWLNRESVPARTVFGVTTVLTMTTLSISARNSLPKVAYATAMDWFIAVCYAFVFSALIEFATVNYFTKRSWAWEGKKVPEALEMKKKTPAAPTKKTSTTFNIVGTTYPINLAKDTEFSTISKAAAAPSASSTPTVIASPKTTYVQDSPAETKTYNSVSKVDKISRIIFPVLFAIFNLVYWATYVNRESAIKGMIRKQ
# T2 sequence (P63138 25-474 partner limits assumed): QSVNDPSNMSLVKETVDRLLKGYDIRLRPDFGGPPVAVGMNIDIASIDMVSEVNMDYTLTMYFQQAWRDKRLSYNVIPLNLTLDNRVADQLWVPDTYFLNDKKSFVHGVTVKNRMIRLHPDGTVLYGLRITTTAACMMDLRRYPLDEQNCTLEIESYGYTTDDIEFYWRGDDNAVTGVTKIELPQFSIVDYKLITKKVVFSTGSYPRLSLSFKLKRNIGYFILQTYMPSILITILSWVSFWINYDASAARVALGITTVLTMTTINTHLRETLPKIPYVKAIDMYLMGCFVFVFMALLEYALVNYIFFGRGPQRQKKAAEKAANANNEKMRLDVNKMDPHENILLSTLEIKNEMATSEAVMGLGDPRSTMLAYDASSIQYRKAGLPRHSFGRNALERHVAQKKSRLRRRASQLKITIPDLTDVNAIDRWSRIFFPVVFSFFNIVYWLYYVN
# T2 sequence (P18508 39-466): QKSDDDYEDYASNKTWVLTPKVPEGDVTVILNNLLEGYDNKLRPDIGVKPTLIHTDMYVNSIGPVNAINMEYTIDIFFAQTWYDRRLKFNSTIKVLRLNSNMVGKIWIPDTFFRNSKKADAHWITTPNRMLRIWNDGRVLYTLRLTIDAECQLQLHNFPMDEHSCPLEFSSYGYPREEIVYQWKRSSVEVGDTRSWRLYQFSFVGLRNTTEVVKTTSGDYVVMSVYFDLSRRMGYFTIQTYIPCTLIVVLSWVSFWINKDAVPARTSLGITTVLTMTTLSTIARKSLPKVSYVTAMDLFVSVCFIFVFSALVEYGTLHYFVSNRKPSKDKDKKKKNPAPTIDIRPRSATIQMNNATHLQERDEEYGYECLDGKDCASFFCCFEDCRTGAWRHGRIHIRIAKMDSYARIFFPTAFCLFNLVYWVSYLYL
# Description: as §1, §2, §3, §4, §5, §6, §7, §8, §9
# [3] = molecular target: T3, rat GABAA receptors α5β2γ2 (Rattus norvegicus, UniProt P18508+P19969); test: Stimulation of GABA (EC3-5)-elicited currents in Xenopus oocytes, two-electrode voltage clamp, α5β2γ2; type: cell-based
# T3 construct: expressed in transfected cells; host or cells: Xenopus laevis oocytes, cRNA microinjected
# T3 sequence (P19969 32-464 limits assumed): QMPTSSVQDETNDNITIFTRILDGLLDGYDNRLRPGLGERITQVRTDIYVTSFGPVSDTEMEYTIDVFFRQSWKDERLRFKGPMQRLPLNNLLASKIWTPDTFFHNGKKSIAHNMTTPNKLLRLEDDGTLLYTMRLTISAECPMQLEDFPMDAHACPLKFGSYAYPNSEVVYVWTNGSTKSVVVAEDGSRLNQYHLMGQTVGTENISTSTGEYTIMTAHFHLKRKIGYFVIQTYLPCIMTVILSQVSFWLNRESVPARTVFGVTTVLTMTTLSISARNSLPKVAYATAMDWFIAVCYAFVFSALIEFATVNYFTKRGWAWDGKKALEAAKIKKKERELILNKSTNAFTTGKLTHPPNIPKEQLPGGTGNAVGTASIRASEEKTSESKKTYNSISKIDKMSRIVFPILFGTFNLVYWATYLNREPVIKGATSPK
# T3 sequence (P63138 25-474 partner limits assumed): as the sequence (P63138 25-474 partner limits assumed) above
# T3 sequence (P18508 39-466): as the sequence (P18508 39-466) above
# Description: as §1, §2, §3, §4, §5, §6, §7, §8, §9
# [4] = Example 2: single and repeat dose pharmacokinetic, safety and pharmacodynamic study in healthy volunteers; type: in vivo; settings: human
# Description: A single and repeat dose pharmacokinetic safety and pharmacodynamic study of the effects of the compound of formula (II) was conducted using healthy volunteers. The compound of formula (II) was administered orally in 1 mg, 1.5 mg, 2 mg and 2.5 mg doses via a hard gelatine capsule containing the compound in powder form.
# [5] = GABA EC3-5, mean±SD of individually fitted curves, read-out: Potency
# [6] = standardized to stimulation by 1 μM diazepam (100%)
# [7] = unstandardized current stimulation
# T1 sequence (P23576 29-451): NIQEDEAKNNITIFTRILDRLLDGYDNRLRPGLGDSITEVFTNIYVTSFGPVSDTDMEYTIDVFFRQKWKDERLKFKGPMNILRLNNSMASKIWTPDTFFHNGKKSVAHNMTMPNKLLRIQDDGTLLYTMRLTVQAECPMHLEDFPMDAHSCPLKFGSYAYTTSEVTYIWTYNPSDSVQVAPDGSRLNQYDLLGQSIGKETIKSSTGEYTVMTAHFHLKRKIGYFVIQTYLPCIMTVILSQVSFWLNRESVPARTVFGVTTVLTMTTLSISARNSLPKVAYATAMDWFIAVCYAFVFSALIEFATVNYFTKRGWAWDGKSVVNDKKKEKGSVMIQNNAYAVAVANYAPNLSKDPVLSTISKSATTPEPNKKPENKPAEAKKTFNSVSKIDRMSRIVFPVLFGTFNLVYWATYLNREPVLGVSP
# T1 sequence (P63138 25-474 partner limits assumed): as the sequence (P63138 25-474 partner limits assumed) above
# T1 sequence (P18508 39-466): as the sequence (P18508 39-466) above
compound,measurement,setting,value
"CN(C)Cc1nc(-c2ncn3c2CN(C)C(=O)c2c(Cl)cccc2-3)no1 [compound of formula (II), 7-chloro-3-(5-dimethylaminomethyl-[1,2,4]oxadiazol-3-yl)-5-methyl-4,5-dihydro-imidazo[1,5-a][1,4]benzodiazepine-6-one]",EC50,[1]; [5],62 ± 21 nM
same,Standardized Efficacy,[1]; [6],31 ± 6% (n = 5)
same,Efficacy,[1]; [7],90 ± 16% (n = 5)
same,EC50,[2]; [5],84 ± 15 nM
same,Standardized Efficacy,[2]; [6],41 ± 8% (n = 5)
same,Efficacy,[2]; [7],171 ± 33% (n = 5)
same,EC50,[3]; [5],53 ± 6 nM
same,Standardized Efficacy,[3]; [6],69 ± 23% (n = 5)
same,Efficacy,[3]; [7],135 ± 16% (n = 5)
same,half-life,"[4]; in vivo, po",3 to 4 h
same,effect of food on the extent of absorption,[4]; oral,little or no effect
same,pharmacokinetic profile on day 14 after repeat dosing compared to day 1,[4]; oral repeat dosing,no significant differences
